# Calls of active or inactive are those of the source. The rule behind the calls is not given here.
# What was measured:
# Bacillus subtilis = assay: Antibacterial activity against Bacillus subtilis DSM 347 at 100 ug/disk by diffusion test; format: functional, organism-based
# Candida albicans = assay: Antifungal activity against Candida albicans DSM 1665 at 100 ug/disk by diffusion test; format: functional, organism-based
# Escherichia coli = assay: Antibacterial activity against Escherichia coli DSM 1103 at 100 ug/disk by diffusion test; format: functional, organism-based
# Pseudomonas aeruginosa = assay: Antibacterial activity against Pseudomonas aeruginosa DSM 1117 at 100 ug/disk by diffusion test; format: functional, organism-based
# Gambusia affinis = assay: Toxicity in Gambusia affinis; format: organism-based; details: in vivo
# Artemia salina = assay: Toxicity in Artemia salina; format: organism-based; details: in vivo
# Micrococcus luteus = assay: Antibacterial activity against Micrococcus luteus DSM 348 at 100 ug/disk by diffusion test; format: functional, organism-based
SMILES,Activity (Bacillus subtilis),Activity (Candida albicans),Activity (Escherichia coli),Activity (Pseudomonas aeruginosa),LC50 (Gambusia affinis) [ppm],LC50 (Artemia salina) [ppm],Activity (Micrococcus luteus)
CC(C)=CCC/C(C)=C/CC/C(C)=C/CC/C(=C/CC/C(C)=C/CC/C(C)=C/CC/C(C)=C/CCC1(C)C=Cc2cc(O)ccc2O1)CO (stereo not drawn),inactive,inactive,inactive,inactive,> 100,32.3,inactive
CC(C)=CCC/C(C)=C/CC/C(C)=C/CC/C(=C/CC/C(C)=C/CC/C(C)=C/CC/C(C)=C/CC/C(C)=C/Cc1cc(OS(=O)(=O)[O-])ccc1O)CO.[Na+],inactive,inactive,inactive,inactive,19.6,0.05,inactive
CC(C)=CCC/C(C)=C/CC/C(C)=C/CC/C(C)=C/CC/C(C)=C/CC/C(C)=C/CC/C(C)=C/CC/C(C)=C/Cc1cc(O)ccc1O,–,–,–,–,> 100,0.98,–
CC(C)=CCC/C(C)=C/CC/C(C)=C/CC/C(=C/CC/C(C)=C/CC/C(C)=C/CC/C(C)=C/CC/C(C)=C/Cc1cc(O)ccc1O)CO,inactive,inactive,inactive,inactive,> 100,0.35,inactive
CC(C)=CCC/C(C)=C/CC/C(C)=C/CC/C(C)=C/CC/C(C)=C/CC/C(C)=C/CC/C(C)=C/Cc1cc(OS(=O)(=O)[O-])ccc1O.[Na+],inactive,inactive,inactive,inactive,15.6,0.02,inactive
CC(C)=CCC/C(C)=C/CC/C(C)=C/CC/C(C)=C/CC/C(C)=C/CC/C(C)=C/CC/C(C)=C/Cc1cc(O)ccc1O,–,–,–,–,> 100,0.91,–
CC(C)=CCC/C(C)=C/CC/C(C)=C/CC/C(C)=C/CC/C(C)=C/CC/C(C)=C/CC/C(C)=C/CCC1(C)C=Cc2cc(O)ccc2O1 (stereo not drawn),inactive,inactive,inactive,inactive,> 100,1.45,inactive
CC(C)=CCC/C(C)=C/CC/C(C)=C/CC/C(C)=C/CC/C(C)=C/CC/C(C)=C/CCC1(C)C=Cc2cc(O)ccc2O1 (stereo not drawn),inactive,inactive,inactive,inactive,> 100,1.15,inactive
CC(C)=CCC/C(C)=C/CC/C(C)=C/CC/C(C)=C/CC/C(C)=C/CC/C(C)=C/CC/C(C)=C/CC/C(C)=C/Cc1cc(OS(=O)(=O)[O-])ccc1O.[Na+],inactive,inactive,inactive,inactive,16.9,0.04,inactive

# From ChEMBL document CHEMBL1159295, “Sulfated Polyprenylhydroquinones from the Sponge Ircinia spinosula” (J Nat Prod, 1995)
